In PMC467095 (Journal of Enzyme Inhibition and Medicinal Chemistry, 2024):
pIC50: −log10 of the molar value. Each block holds one compound with its values, some of them ahead of it.

Legend:
α-glucosidase = assay: α-Glucosidase inhibition assay; format: biochemical; settings: for pIC50: read-out: α-Glucosidase IC50, Table 3, DF = 100
[1] = system: STZ-induced diabetes in mice; assay: Plasma insulin; format: in vivo; settings: two weeks of treatment, mean of 6 mice ± SEM
[2] = system: STZ-induced diabetes in mice; assay: Kidney function parameters; format: in vivo; settings: two weeks of treatment, mean of 6 mice ± SEM; for Urea: plasma
[3] = system: STZ-induced diabetes in mice; assay: Blood glucose in STZ-induced diabetes in mice; format: in vivo; settings: p < 0.05
[4] = system: STZ-induced diabetes in mice; assay: Oxidative stress markers; format: in vivo; settings: plasma, two weeks of treatment, mean of 6 mice ± SEM
[5] = system: STZ-induced diabetes in mice; assay: Liver function markers; format: in vivo; settings: plasma, two weeks of treatment, mean of 6 mice ± SEM

SMILES: CCOC(=O)c1sc(N=C2c3ccccc3-c3nc4cc(F)ccc4nc32)nc1C [Compound 6]
pIC50 (α-glucosidase): 5.52
Insulin [1]: 12.28 ± 0.3^a^,^b ng/mL

SMILES: CC(=O)c1sc(NN=C2c3ccccc3-c3nc4cc(F)ccc4nc32)nc1C [Compound 8, 1–(2-(2–(7-fluoro-11H-indeno[1,2-b]quinoxalin-11-ylidene)-hydrazineyl)-4-methyl-thiazol-5-yl)-ethan-1-one]
pIC50 (α-glucosidase): 6.01
Insulin [1]: 10.5 ± 0.3^a^,^b ng/mL

SMILES: Cc1ccc(S(=O)(=O)NC(=O)NN2CC3CCCC3C2)cc1 (centres unmarked) [Gliclazide]
Creat ([2]; plasma creatinine): 3.3 ± 0.1^a^,^b
Urea [2]: 57.5 ± 0.3^a^,^b
Urea ([2]; listed as gliclazide): significant lowering
Blood sugar levels compared to the STZ-only treatment group [3]: declined significantly
GSH [4]: 3.15 ± 0.05^a^,^b
MDA [4]: 22 ± 0.2^a^,^b
GSH ([4]; listed as gliclazide): significant elevation
MDA ([4]; listed as gliclazide): significant reduction
ALT [5]: 53.7 ± 0.7^a^,^b
AST [5]: 39.8 ± 0.3^a^,^b
ALT ([5]; listed as gliclazide): significant reduction
AST ([5]; listed as gliclazide): significant reduction
Insulin [1]: 14.52 ± 0.4^a^,^b ng/mL
Insulin ([1]; listed as gliclazide): rose

The next lines start with results.

pIC50 (α-glucosidase): 4.99
SMILES: O=C1CSC(N=C2c3ccccc3-c3nc4cc(F)ccc4nc32)=N1 [Compound 4]
Insulin [1]: 11.44 ± 0.2^a^,^b ng/mL

pIC50 (α-glucosidase): 5.15
α-glucosidase inhibition IC50 (α-glucosidase; ± SD): good activity
SMILES: CCC1SC(NN=C2c3ccccc3-c3nc4cc(F)ccc4nc32)=NC1=O (centres unmarked) [Compound 16]
Insulin [1]: 9.34 ± 0.3^a^,^b ng/mL
